We go through twelve molecules from PubChem BioAssay (NCI).

Among the test systems are UACC-257 melanoma; CAKI-1 renal; SF-539 CNS; ACHN renal; OVCAR-5 ovarian; HCT-15 colon; SK-MEL-2 melanoma; SK-MEL-5 melanoma; OVCAR-3 ovarian; MDA-MB-231 breast; LOX IMVI melanoma.
Common to all, as to assay: inhibition of tumour cell growth, NCI panel, 48 h

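Interpolation was linear, between the two tested concentrations surrounding the appropriate level; five concentrations were tested over 48 hours in 96-well plates. TGI: total growth inhibition.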 A value given as a limit tells only on which side of the number the result lay.

In the case of `N#CC(NNC(=O)c1ccccc1O)c1c(O)ccc2ccccc12` (stereo not drawn), the TGI in the assay on UACC-257 melanoma came out at 24.9 µM; in the assay on CAKI-1 renal it was 21 µM; with SF-539 CNS it was 23.1 µM; in the assay with ACHN renal it was 22.2 µM; in the assay with OVCAR-5 ovarian, 21.1 µM; in the assay with HCT-15 colon, 32.8 µM. Besides, the TGI in the assay with SK-MEL-2 melanoma amounted to 33.3 µM; with SK-MEL-5 melanoma, 10.4 µM; in the assay with OVCAR-3 ovarian, 23.8 µM; with MDA-MB-231 breast, 27.7 µM; in the assay on LOX IMVI melanoma, 6.64 µM.
For the molecule `CC(=O)NN(c1ccccc1)C1CCN(c2ccccc2)N1C(C)=O` (stereo not drawn), the TGI with UACC-257 melanoma, in the assay with CAKI-1 renal, with SF-539 CNS, in the assay on ACHN renal, in the assay with OVCAR-5 ovarian and with HCT-15 colon was > 10 µM throughout. In addition, the TGI in the assay on SK-MEL-2 melanoma, in the assay on SK-MEL-5 melanoma, in the assay on OVCAR-3 ovarian, in the assay with MDA-MB-231 breast and in the assay with LOX IMVI melanoma was > 10 µM each time.
For the molecule `COC(=O)C(=O)C(C(=O)C(=O)Nc1ccc(C)c(C)c1)c1nc2ccc([N+](=O)[O-])cc2[nH]c1=O` (stereo not drawn), the TGI with UACC-257 melanoma, in the assay with CAKI-1 renal, in the assay with SF-539 CNS, in the assay on ACHN renal, with OVCAR-5 ovarian and in the assay on HCT-15 colon was > 100 µM throughout. For the same molecule, the TGI in the assay on SK-MEL-2 melanoma, in the assay on SK-MEL-5 melanoma, in the assay with OVCAR-3 ovarian, in the assay on MDA-MB-231 breast and in the assay on LOX IMVI melanoma was > 100 µM in each case.
As to `CC(=O)N[C@@H](Cc1ccc(O)cn1)C(=O)NC1CCCCC1`, the TGI in the assay on UACC-257 melanoma, with CAKI-1 renal, with SF-539 CNS, in the assay on ACHN renal, with OVCAR-5 ovarian and with HCT-15 colon was > 100 µM throughout. In addition, the TGI with SK-MEL-2 melanoma, in the assay on SK-MEL-5 melanoma, in the assay on OVCAR-3 ovarian, with MDA-MB-231 breast and in the assay with LOX IMVI melanoma was > 100 µM each time.
For `Cc1ccc(-n2cc(-c3ccc(Cl)cc3)c3c(=N)n(N)cnc32)cc1`, the TGI in the assay with UACC-257 melanoma was 21.5 µM; in the assay on CAKI-1 renal, 34.3 µM; with SF-539 CNS it was 27 µM; with ACHN renal, 29.7 µM; in the assay on OVCAR-5 ovarian, 27.9 µM; in the assay with HCT-15 colon, 28.9 µM. For the same molecule, the TGI in the assay on SK-MEL-2 melanoma amounted to 26.8 µM; in the assay on SK-MEL-5 melanoma it was 20.1 µM; in the assay on OVCAR-3 ovarian, 26.5 µM; with MDA-MB-231 breast, 25.3 µM; in the assay on LOX IMVI melanoma it was 29.8 µM.
`NC(N)=NCCCC(NC(=O)c1c2ccccc2nc2ccccc12)C(=O)O` (stereo not drawn): the TGI in the assay on UACC-257 melanoma, with CAKI-1 renal, with SF-539 CNS, with ACHN renal, with OVCAR-5 ovarian and in the assay on HCT-15 colon was > 100 µM in each case. Besides, the TGI in the assay on SK-MEL-2 melanoma, with SK-MEL-5 melanoma, with OVCAR-3 ovarian, in the assay with MDA-MB-231 breast and with LOX IMVI melanoma was > 100 µM in each case.
For `COc1ccc(CC[N+]2(C)COc3cc4oc(=O)cc(C)c4cc3C2)cc1OC` (stereo not drawn), the TGI in the assay with UACC-257 melanoma, in the assay with CAKI-1 renal, in the assay on ACHN renal, in the assay with OVCAR-5 ovarian, with HCT-15 colon and in the assay on SK-MEL-2 melanoma was > 100 µM each time. Also, the TGI in the assay with SK-MEL-5 melanoma, with OVCAR-3 ovarian, with MDA-MB-231 breast and with LOX IMVI melanoma was > 100 µM throughout.
For `N#Cc1c(N)nc(Sc2ccccc2N)c(C#N)c1-c1ccccc1`, the TGI was > 100 µM with UACC-257 melanoma; > 100 µM with CAKI-1 renal; 80.1 µM with SF-539 CNS; 69.2 µM in the assay with ACHN renal; > 100 µM in the assay on OVCAR-5 ovarian; > 100 µM with HCT-15 colon. The TGI in the assay with SK-MEL-2 melanoma is 32.5 µM; in the assay on SK-MEL-5 melanoma, > 100 µM; in the assay on MDA-MB-231 breast it was 45.5 µM; in the assay with LOX IMVI melanoma, 41.3 µM.
Regarding `Cc1cc2occ(S(=O)(=O)NC(=O)Nc3ccc(Cl)cc3)c(=O)c2c(=O)o1`, the TGI in the assay with UACC-257 melanoma, with CAKI-1 renal, with SF-539 CNS, with ACHN renal, in the assay on OVCAR-5 ovarian and in the assay on HCT-15 colon was > 100 µM throughout. The TGI in the assay on SK-MEL-2 melanoma, in the assay on SK-MEL-5 melanoma, in the assay with OVCAR-3 ovarian, in the assay with MDA-MB-231 breast and in the assay with LOX IMVI melanoma was > 100 µM in each case.
Take `Cc1nc(Cc2n[nH]c(C)n2)n[nH]1`: the TGI with UACC-257 melanoma, in the assay with SF-539 CNS, in the assay on ACHN renal, in the assay on OVCAR-5 ovarian, with HCT-15 colon and in the assay with SK-MEL-2 melanoma was > 100 µM in each case. In addition, the TGI in the assay with SK-MEL-5 melanoma, in the assay with OVCAR-3 ovarian, in the assay with MDA-MB-231 breast and in the assay with LOX IMVI melanoma was > 100 µM each time.
Take `O=C(O)CCC1NC(/C(=C/c2ccccc2O)NC(=O)c2ccccc2)OC1=O` (stereo not drawn): the TGI with UACC-257 melanoma, in the assay on CAKI-1 renal, with SF-539 CNS, in the assay with ACHN renal, with OVCAR-5 ovarian and in the assay with HCT-15 colon was > 100 µM throughout. Further, the TGI in the assay on SK-MEL-2 melanoma, in the assay with SK-MEL-5 melanoma, in the assay on OVCAR-3 ovarian, in the assay on MDA-MB-231 breast and in the assay with LOX IMVI melanoma was > 100 µM throughout.
`COc1cc(/C=C2/Oc3c(OC)cccc3C2=O)ccc1O`: the TGI in the assay on UACC-257 melanoma, with CAKI-1 renal, in the assay on ACHN renal, in the assay on OVCAR-5 ovarian, in the assay on HCT-15 colon and in the assay on SK-MEL-2 melanoma was > 100 µM throughout. For the same molecule, the TGI with SK-MEL-5 melanoma, in the assay with OVCAR-3 ovarian, in the assay with MDA-MB-231 breast and in the assay with LOX IMVI melanoma was > 100 µM each time.
